Where two headings read alike, the source gives them in different places. Where a SMILES comes first, the peptide text is derived from it. The star is where a group is joined. Cbz = O=C(OCc1ccccc1)*

Series [1] can be described thus: PAMPA (parallel artificial membrane permeability assay). Type of series: in vitro ADME. The method, then:
(§1) Substituents were varied to improve binding affinity to LZK and selectivity over DLK. KD values were measured by Eurofins DiscoveRx using the Kd-Elect system. Parallel artificial membrane permeability assay (PAMPA) values were measured by Cyprotex.
In general terms: The PAMPA barrier holds no transporters, so it reflects passive diffusion.

The test system of a further series is c-MYC. The series can be described thus: Western blot of c-MYC abundance. Type of series: cell-based. To be noted: CAL33 and BICR56 cells depleted of LZK for 48 hours, 10 μM for six hours. The method, then:
Generally, cells were plated in six-well or 35-mm plates for 24 hours, after which doxycycline was added or treatment with specific inhibitor was administered using 5% FBS media for 48 hours. After appropriate treatment time, cells were washed with ice-cold phosphate-buffered saline without Ca and Mg (Quality Biological) and then lysed on ice with RIPA buffer ([…], 1.0% IGEPAL® CA-630, 0.5% sodium deoxycholate, 0.1% SDS, 50 mM Tris, pH 8.0) (Sigma-Aldrich) supplemented with protease inhibitor tablet (Sigma-Aldrich) and phosphatase inhibitor cocktails 2 and 3 (Sigma-Aldrich) followed by centrifugation at 15,000 rpm for 10 minutes at 4° C. Protein concentrations were determined from the cell lysate by using 660 nm Protein Assay Reagent (Pierce). Cell extracts were denatured, subjected to SDS-PAGE, transferred to PVDF membranes (Bio-Rad) and blocked for 2 hours using 5% bovine serum albumin (BSA) in phosphate-buffered saline and 0.1% Tween® 20 (PBS-T). The membranes were incubated with the specific antibodies overnight in 5% BSA/PBST at 4° C. followed by a 1 hour incubation with the appropriate horseradish peroxidase-conjugated secondary antibodies and signal was detected by chemiluminescence (Thermo Fisher).
For orientation: A western blot detects proteins with antibodies after separation by electrophoresis.

The target of series [2] is T1, LZK (Homo sapiens (Human), UniProt O43283). Nature of the series: KD determination, Eurofins DiscoveRx Kd-Elect. Format: binding. The method, then: as §1
T1 sequence (O43283 whole entry): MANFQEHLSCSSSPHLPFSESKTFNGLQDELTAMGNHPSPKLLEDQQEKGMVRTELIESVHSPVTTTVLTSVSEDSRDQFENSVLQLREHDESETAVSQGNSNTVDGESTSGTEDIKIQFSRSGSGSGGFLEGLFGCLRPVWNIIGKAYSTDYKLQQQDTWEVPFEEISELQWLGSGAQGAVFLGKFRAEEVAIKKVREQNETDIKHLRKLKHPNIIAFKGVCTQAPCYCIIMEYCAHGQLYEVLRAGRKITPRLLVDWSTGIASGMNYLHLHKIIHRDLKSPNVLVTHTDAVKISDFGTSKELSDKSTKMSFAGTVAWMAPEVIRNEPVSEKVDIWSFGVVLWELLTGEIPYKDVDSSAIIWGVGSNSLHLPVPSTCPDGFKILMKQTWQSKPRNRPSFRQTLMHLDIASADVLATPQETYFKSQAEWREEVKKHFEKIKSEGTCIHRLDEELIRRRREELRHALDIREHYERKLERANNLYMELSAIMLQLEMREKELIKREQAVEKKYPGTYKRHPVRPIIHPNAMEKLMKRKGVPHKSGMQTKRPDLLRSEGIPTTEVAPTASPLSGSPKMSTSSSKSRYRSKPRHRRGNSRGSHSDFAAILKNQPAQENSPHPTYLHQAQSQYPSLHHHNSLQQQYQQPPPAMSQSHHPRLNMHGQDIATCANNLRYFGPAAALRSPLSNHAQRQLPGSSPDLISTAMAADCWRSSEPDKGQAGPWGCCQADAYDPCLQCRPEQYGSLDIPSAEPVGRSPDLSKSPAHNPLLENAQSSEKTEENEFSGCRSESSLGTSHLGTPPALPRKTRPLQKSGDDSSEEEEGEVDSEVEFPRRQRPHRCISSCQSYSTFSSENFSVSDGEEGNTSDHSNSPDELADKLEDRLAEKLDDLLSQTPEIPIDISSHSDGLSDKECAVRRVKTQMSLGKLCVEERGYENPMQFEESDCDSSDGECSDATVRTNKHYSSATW
(§2) KD values were calculated with a standard dose-response curve using the Hill equation: […]
(§3) The Hill Slope was set to −1. Curves were fitted using a non-linear least square fit with the Levenberg-Marquardt algorithm.

The target in series [3] is T1, LZK. Nature of the series: Phospho-JNK ELISA in doxycycline-induced CAL33 cells expressing LZK. Format: cell-based. To be noted: for Phospho-JNK levels: 1 μM LZK inhibitor, 1 hour, compared to GNE-3511 control. The text has this:
The ViraPower HiPerform T-REx Gateway Expression System (Invitrogen) was used to generate cells with tetracycline-inducible expression of LZK. In brief, wild-type (WT) or drug-resistant mutant (Q240S) LZK (cloned into pLenti6.3/TO/V5-DEST vector) and pLenti3.3/TR (for tetracycline repressor expression) were transfected into 293FT cells using Lipofectamine 2000 to generate lentiviral stock. Cell lines were generated by antibiotic selection (blasticidin [Gibco] and geneticin [Gibco]). Doxycycline (Sigma-Aldrich) was used at 1 μg/mL to induce LZK expression.
A PathScan® Phospho-SAPK/JNK (Thr183/Tyr185) Sandwich ELISA Assay (Cell Signaling Technology) was used for ELISA assays following the manufacturer's protocol. In general, 500,000 cells were plated and treated with doxycycline the following day where appropriate and incubated at 37° C. for 48 hours. Cells were treated with the drug compound or control in 5% FBS media for 1 hour. After appropriate treatment time, cells were lysed on ice with 1× Cell Lysis Buffer (Cell Signaling Technology) supplemented with phosphatase and protease inhibitors (Sigma). Each diluted cell lysate was added to Phospho-SAPK/JNK (Thr183/Tyr185)Rabbit mAb Coated microwells in triplicate and incubated overnight at 4° C. Samples were treated with the following antibodies and incubated at 37° C. for 1 hour and 30 minutes, respectively: Detection Antibody and HRP-Linked secondary antibody. Samples were washed between treatments using 1× Wash Buffer according to the manufacturer's protocol. TMB substrate was added to each well and incubated at 37° C. for 10 minutes. Following this, STOPsolution was added to each well and absorbance was measured at 450 nm using iMark™ Microplate Absorbance Reader (Bio-Rad). Graphs display relative phospho-JNK levels.

In a further series the target is DLK (Homo sapiens (Human), UniProt Q12852). Nature of the series: KD determination, Eurofins DiscoveRx Kd-Elect. Format: binding. The method, then:
as §1, §2, §3

A further series deals with OVCAR5 cells. Nature of the series: Colony formation assay. Format: cell-based. The method, then: (§4) Crystal violet assays were used to assess relative cell growth and survival after treatment with specific compounds. In general, cells were plated in triplicate in 12-well plates for 24 hours before drug treatments were added using 10% FBS media. The plates were incubated for 14 days, with the media and drug being replaced every 48 hours. The cells were then washed with phosphate-buffered saline and fixed in ice-cold methanol before being stained with 0.5% crystal violet (Sigma-Aldrich) in 25% methanol. Images were taken using a ChemiDoc MP Imaging System (Bio Rad), and for quantification, the crystal violet stain was dissolved in 33% acetic acid, incubated for 20 minutes with shaking, and read at 595 nm using iMark™ Microplate Absorbance Reader (Bio-Rad). Graphs display percent colony formation relative to the DMSO-treated control sample.

A further series relates to KYSE70 cells. The series can be described thus: Colony formation assay. Type of series: cell-based. The method, then: as §4

Chain of DLK (Q12852 whole entry): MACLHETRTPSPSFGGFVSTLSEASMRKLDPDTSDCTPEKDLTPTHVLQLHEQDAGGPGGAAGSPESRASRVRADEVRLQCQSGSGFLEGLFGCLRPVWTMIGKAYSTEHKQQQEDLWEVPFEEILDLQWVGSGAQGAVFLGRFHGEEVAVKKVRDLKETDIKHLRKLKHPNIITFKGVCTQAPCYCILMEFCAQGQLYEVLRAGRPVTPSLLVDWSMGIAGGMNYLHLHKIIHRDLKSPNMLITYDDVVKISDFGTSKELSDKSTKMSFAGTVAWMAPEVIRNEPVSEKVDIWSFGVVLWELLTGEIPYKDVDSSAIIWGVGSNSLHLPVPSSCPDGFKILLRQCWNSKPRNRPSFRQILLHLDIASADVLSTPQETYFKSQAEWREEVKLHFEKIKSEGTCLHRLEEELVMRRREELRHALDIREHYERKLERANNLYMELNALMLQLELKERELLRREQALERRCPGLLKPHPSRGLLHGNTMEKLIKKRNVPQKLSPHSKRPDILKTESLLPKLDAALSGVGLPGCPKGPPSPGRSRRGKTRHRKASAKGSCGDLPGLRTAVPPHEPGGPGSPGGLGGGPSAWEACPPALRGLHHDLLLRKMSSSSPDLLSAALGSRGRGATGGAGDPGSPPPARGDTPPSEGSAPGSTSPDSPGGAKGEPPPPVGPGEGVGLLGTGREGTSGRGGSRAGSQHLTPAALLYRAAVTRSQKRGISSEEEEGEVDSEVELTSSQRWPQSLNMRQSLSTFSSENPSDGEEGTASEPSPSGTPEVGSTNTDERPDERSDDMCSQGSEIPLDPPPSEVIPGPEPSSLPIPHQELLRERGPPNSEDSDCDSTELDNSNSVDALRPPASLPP

Turning to `CC(=O)NC12CC(n3cc(-c4cnc(N)c(OC(F)(F)F)c4)nc3C(O)C(C)C)(C1)C2` (stereo not drawn) [DLK-IN-2, reference compound], in series [1] (PAMPA), the Mean permeability was 0.5352 10^−6 cm/sec.
As to `CC(C)C(O)c1nc(-c2cnc(N)c(OC(F)(F)F)c2)cn1C12CC(N)(C1)C2` (stereo not drawn) [DLK-IN-3, reference compound], in series [1] (PAMPA), the Mean permeability is given as 2.9021 10^−6 cm/sec.
On to `CC(C)C[C@@H](C=O)NC(=O)[C@H](CC(C)C)NC(=O)[C@H](CC(C)C)NC(=O)OCc1ccccc1` [MG132] (Cbz-Leu-Leu-Leu-aldehyde), for which the “c-MYC levels in cells depleted of LZK” value in the series with c-MYC is listed as “rescued decreases in the c-MYC levels”.
As to `CC(=O)NC12CC(n3cc(-c4cnc(N)c(C(F)(F)F)n4)nc3C(O)C(C)C)(C1)C2` (stereo not drawn) [compound 44], on LZK [2] (read-out: Kd values), the Kd (commonly the constant that tells how readily two partners part at equilibrium) came to 0.094 µM.
As to `CC(=O)NC12CC(n3cc(-c4cnc(N)c(C#N)n4)nc3C(O)C(C)C)(C1)C2` (stereo not drawn) [compound 45], the Kd on LZK [2] (read-out: Kd values) came out at 0.44 µM.
For the molecule `CC(=O)NC12CC(n3cc(-c4cnc(N)cn4)nc3C(O)C(C)C)(C1)C2` (stereo not drawn) [compound 46], the Kd on LZK [2] (read-out: Kd values) is more than 10 µM.
As to `CC(=O)N1CCC(c2cc(Nc3cnccn3)nc(N3CCC(F)(F)C3)c2)CC1` [compound 100], in series [1], the Mean permeability was 16.9436 10^−6 cm/sec and the PAMPA came to 16.94. The “Inhibition of downstream JNK pathway activation” value at LZK [3] (ELISA assay) is given as “effective inhibitor”.
In the case of `CC(=O)N1CCC(c2cc(Nc3ccn(C)n3)nc(N3CCC(F)(F)C3)c2)CC1` [compound 101], the Kd on LZK [2] (in μM, read-out: LZK KD) was more than 10 µM; at DLK (in μM) it was more than 10 µM.
`CC(=O)N1CCC(c2cc(Nc3cc4[nH]ccc4cn3)nc(N3CCC(F)(F)C3)c2)CC1` [compound 104]: the Kd at LZK [2] (in μM, read-out: LZK KD) was more than 10 µM; on DLK (in μM), more than 10 µM.
Take `CC(=O)N1CCC(c2cc(Nc3cnc(C)cn3)nc(N3CCC(F)(F)C3)c2)CC1` [compound 107]: on LZK [3], the Phospho-JNK levels result is “particularly effective”.
Regarding `CC(=O)N1CCC(c2cc(Nc3cncc(C)n3)nc(N3CCC(F)(F)C3)c2)CC1` [compound 108], the dissociation constant (Kd) is more than 10 µM at LZK [2] (in μM, read-out: LZK KD) and more than 10 µM at DLK (in μM).
Consider `CC(=O)N1CCC(c2cc(Nc3nccnc3C)nc(N3CCC(F)(F)C3)c2)CC1` [compound 109], for which the Kd is more than 10 µM on LZK [2] (in μM, read-out: LZK KD) and more than 10 µM at DLK (in μM).
For `CC(=O)N1CCC(c2cc(Nc3cnc4ccccc4n3)nc(N3CCC(F)(F)C3)c2)CC1` [compound 112], the equilibrium dissociation constant (Kd) is more than 10 µM on LZK [2] (in μM, read-out: LZK KD) and more than 10 µM at DLK (in μM).
Take `CC(=O)N1CCC(c2cc(Nc3cn(C)cn3)nc(N3CCC(F)(F)C3)c2)CC1` [compound 114]: the dissociation constant (Kd) worked out at 1.5 µM at LZK [2] (read-out: LZK KD) and 1.2 µM at DLK.
Regarding `COc1cnc(Nc2cc(C3CCN(C(C)=O)CC3)cc(N3CCC(F)(F)C3)n2)cn1` [compound 115], at LZK [2] (read-out: LZK KD), the equilibrium dissociation constant (Kd) stood at 0.3 µM.
Turning to `CC(=O)N1CCC(c2cc(Nc3ncccn3)nc(N3CCC(F)(F)C3)c2)CC1` [compound 117], the equilibrium dissociation constant (Kd) was more than 10 µM at LZK [2] (in μM, read-out: LZK KD) and more than 10 µM at DLK (in μM).
As for `Cc1cnc(Nc2cc(C3CCN(C4CCC4)CC3)cc(N3CCC(F)(F)C3)n2)cn1` [compound 162], the “dose-dependent inhibition of LZK” value at LZK [3] is “dose-dependent inhibition”.
On to `Cc1cnc(Nc2cc(C3CCN(C4COC4)CC3)cc(N3CCC(F)(F)C3)n2)cn1` [compound 163], for which the dissociation constant Kd on LZK [2] (read-out: LZK KD) came to 0.02 µM.
With `Cc1cnc(Nc2cc(C3CCN(C4CCCC4)CC3)cc(N3CCC(F)(F)C3)n2)cn1` [compound 164], on LZK [3], the “dose-dependent inhibition of LZK” value is “dose-dependent inhibition” and the Phospho-JNK levels result was “more effective than GNE-3511”. The half-inhibitory concentration (IC50) (commonly the concentration that gives 50% inhibition) at LZK [3] (read-out: inhibition of LZK IC50) was approximately 100 nM. The “sensitivity (colony formation)” value in the series on OVCAR5 cells is on record as “sensitive”.
With `CC(=O)N1CC(c2cc(Nc3cnc(C)cn3)nc(N3CCC(F)(F)C3)c2)C1` [compound 165], on DLK, the “increase of Kd for DLK over the parent (107)” value turned out to be 6 fold.
As to `CC(=O)N1CCC(c2cc(Nc3cnc(C)cn3)nc(N(C)CC3CC3)c2)CC1` [compound 186], the Kd on LZK [2] (read-out: LZK KD) turned out to be 0.09 µM.
`CC(=O)N1CCC(c2cc(Nc3cnc(C)cn3)nc(N3CCOCC3)c2)CC1` [compound 191]: the figures for the Kd at LZK [2] (read-out: LZK KD) and at DLK were 0.23 µM and 0.17 µM, respectively.
With `CC(=O)N1CCC(c2cc(Nc3cnc(C)cn3)nc(N3CCC(F)(F)CC3)c2)CC1` [compound 192], the dissociation constant Kd amounted to 0.065 µM at LZK [2] (read-out: LZK KD) and 0.12 µM on DLK.
With `CC(=O)N1CCC(c2cc(Nc3cnc(C)cn3)nc(N3CCC4(CC4)C3)c2)CC1` [compound 201], the dissociation constant Kd on DLK came out at 0.02 µM.
On to `CC(=O)N1CCC(c2cc(Nc3cnc(C)cn3)nc(N3CC4CC(C4)C3)c2)CC1` [compound 204], for which, on LZK [2] (read-out: LZK KD), the Kd amounted to 0.008 µM.
Turning to `CC(=O)N1CCC(c2cc(Nc3cnc(C)cn3)nc(N3CC4CC(C3)C4O)c2)CC1` (stereo not drawn) [compound 205], binding at DLK was put at a Kd of 0.1 µM.
Turning to `CC(=O)N1CCC(c2cc(Nc3cnc(C)cn3)nc(N3CC4CCC4C3)c2)CC1` (stereo not drawn) [compound 207], the “selectivity for LZK over DLK” value on LZK [2] (from KD values) amounted to 180 fold. Moreover, the equilibrium dissociation constant (Kd) at LZK [2] (read-out: LZK KD) came to 0.00097 µM; at DLK it was 0.18 µM.
On to `CC(=O)N1CCC(c2cc(Nc3cnc(C)cn3)nc(N3CCC4(CC3)CC4)c2)CC1` [compound 208], for which the dissociation constant Kd at DLK is 0.1 µM.
Take `c1nc(C2CC2)cnc1Nc1cc(C2CCN(CC3CC3)CC2)cc(N2CC3CC3C2)n1` (stereo not drawn) [compound 216]: binding on DLK was put at a Kd of 0.002 µM. The “sensitivity (colony formation)” value in the series with OVCAR5 cells and in the series on KYSE70 cells was “exquisitely sensitive” each time.
Turning to `CC(=O)N1CC(c2cc(Nc3cnc(C4CC4)cn3)nc(N3CC4CC4C3)c2)C1` (stereo not drawn) [compound 218], on DLK, the Kd came out at 0.03 µM.
In the case of `c1nc(C2CC2)cnc1Nc1cc(C2CN(CC3CC3)C2)cc(N2CC3CC3C2)n1` (stereo not drawn) [compound 219], the “sensitivity (colony formation)” value in the series on OVCAR5 cells and with KYSE70 cells was “exquisitely sensitive” throughout.
Consider `c1nc(C2CC2)cnc1Nc1cc(C2CN(CC3CC3)C2)cc(N2CC3CCC3C2)n1` (stereo not drawn) [compound 228], for which the Kd on LZK [2] (read-out: LZK KD) worked out at 0.007 µM.

The values are drawn from patent US20250032489A1, “MIXED LINEAGE KINASE INHIBITORS AND METHODS OF USE” (The U.S.A., as represented by the Secretary, Department of …, priority 2022, published 2025).
